Assay results as given in patent US20030068615A1, “Polypeptides that bind HIV gp120 and related nucleic acids, antibodies, compositions, and methods of use” (priority 1999, published 2003).
“And” between values parts separate entries of the source, which are not always exact repeats. Equal values may be shown once. Read-outs that look alike come from different tables or passages of the source.

Molecular target: HIV-1LAI envelope gp120 (Human immunodeficiency virus type 1 group M subtype B, UniProt P03377)
Assay type: binding
Conditions: for Binding Results For Window Length (counts bound-background), 9: 9-mer starting at the first residue of the printed sequence; for Binding Results For Window Length (counts bound-background), 12: 12-mer starting at the first residue of the printed sequence; for number of radioactive decays (counts) counted: human CD4 21-mer scan, empty control 2075; for Relative % of Control: mean of two syntheses and binding experiments ± average deviation, wild-type = 100%; for Counts per 20′ Average-background: CCR5 18-mer scan
[1] = STRL33 amino terminus, background subtracted
[2] = STRL33 18-mer scan, background subtracted, first of two count columns
[3] = STRL33 18-mer scan, background subtracted, second of two count columns
[4] = Panel C, 15-mers and 18-mers of CD4, empty control 556
[5] = Panel E, 9-mers and 12-mers of CD4, empty control 571
[6] = CXCR4 18-mer scan, background subtracted, empty control 0
[7] = CXCR4 18-mer scan, empty control 412
[8] = radiolabeled HIV-1LAI gp120, background subtracted
[9] = Panel D, 9-mers and 12-mers of CD4, empty control […]
[10] = Panel B, 15-mers and 18-mers of CD4, empty control 575
[11] = Panel F, sequential alanine replacements of CD4 polypeptides, duplicate series, empty control 569

For FSSFNDSSQEEHQAFLQF, the “Binding Results For Window Length (counts bound-background), 9” value [1] was 249 counts, the “Binding Results For Window Length (counts bound-background), 12” value [1] was 403 counts and the “Binding Results For Window Length (counts bound-background), 15” value (STRL33 amino terminus, 15-mer starting at the first residue of the printed sequence, background subtracted) was 361 counts. For the same sequence, the “Binding Results For Window Length (counts bound-background), 18” value (STRL33 amino terminus, 18-mer starting at the first residue of the printed sequence, background subtracted) was 3608 counts.
“TEAIAYLRACLNPVLYAF [STRL33 segment 273-290]” was tested, and the “radioactive counts recorded in twenty minutes” value (“radioactive counts recorded” below) [2] was 604.5 counts and the “radioactive counts recorded” value [3] was 480.5 counts.
With “LKFRKNFWKLVKDIGCLP [STRL33 segment 293-310]” the “radioactive counts recorded” value [2] was 920.5 counts and the “radioactive counts recorded” value [3] was 957.5 counts.
In the case of FKIDIVVLAFQKASSIVY, the “COUNTS of radiolabeled gp120 retained” value [4] is reported as 843 counts.
With LQNQKKVEFKID the “COUNTS of radiolabeled gp120 retained” value [5] was 508 counts.
For “QALPQYAGSGNLTLALEAKTG [human CD4 286-306]”, the “number of radioactive decays (counts) counted” value (“number of radioactive decays” below) was 2364 counts.
For FISLDRYLAIVHATNSQR, the “radioactive counts recorded” value [6] was 91 counts and the “radioactive counts recorded” value [7] was 503 counts.
In the case of VEKLTGSGELWWQAE, the “COUNTS of radiolabeled gp120 retained” value [4] is reported as 735 counts.
In the case of “MDYQVSSPIYDINYATSE [CCR5 (1-18) variant Y15A]”, the “Relative % of Control” value (CCR5 (1-18) alanine variants) is reported as 21 ± 5% and the “percentage of binding of mutant polypeptide compared to wild-type polypeptide, gp120” value (CCR5 alanine mutant peptide, radiolabeled HIV-1LAI gp120) is reported as 21%.
With AVVHAVFALKARTVTFGV the “Counts per 20′ Average-background” value [8] was 34 counts per 20′.
For QVEFSFPLA, the “COUNTS of radiolabeled gp120 retained” value [5] was 1205 counts.
For “IFYHKLQSLTDVFLVNLP [STRL33 segment 57-74]”, the “radioactive counts recorded” value [2] was 1275.5 counts and the “radioactive counts recorded” value [3] was 1256.5 counts.
With “WGPTSPKLMLSLKLENKEAKV [human CD4 331-351]” the “number of radioactive decays” value was 2414 counts.
With GLTANSDTH the “COUNTS of radiolabeled gp120 retained” value [9] was 481 counts.
With “FREENANFNKIFLPTIYS [CXCR4 segment 29-46]” the “radioactive counts recorded” value [6] was 51 counts and the “radioactive counts recorded” value [7] was 463 counts.
For ICEVEDQKEEVQLLVFGL, the “COUNTS of radiolabeled gp120 retained” value [10] was 3898 counts.
HQAFLQFSK was tested, and the “Binding Results For Window Length (counts bound-background), 9” value [1] was 2761 counts.
LILAFISLDRYLAIVHAT was tested, and the “radioactive counts recorded” value [6] was 107 counts and the “radioactive counts recorded” value [7] was 519 counts.
For RMSQIKRLLSEKKTCQCPHRF, the “number of radioactive decays” value was 2020 counts.
With VKQIAARLLPPLYSLVFI [CCR5 segment 25-42] the “Counts per 20′ Average-background” value [8] was 18 counts per 20′.
DIVVLAFQKASSIVYKKE was tested, and the “COUNTS of radiolabeled gp120 retained” value [4] was 660 counts.
In the case of “NLTLALEAKTGKLHQEVNLVV [human CD4 296-316]”, the “number of radioactive decays” value is reported as 1676 counts.
For TVLQNQKKVEFKIDIVVL, the “COUNTS of radiolabeled gp120 retained” value [4] was 655 counts.
For PMALIVLGGVAGLLLFIGLGI, the “number of radioactive decays” value was 3067 counts.
For FIGFFSGIFFIILLTIDR, the “Counts per 20′ Average-background” value [8] was 76 counts per 20′.
In the case of EEAQLLVFGLTANSD, the “COUNTS of radiolabeled gp120 retained” value [11] is reported as 18124 counts and 16296 counts.
MDYQVSSPIYDINYYTAE was tested, and the “Relative % of Control” value (CCR5 (1-18) alanine variants) was 64 ± 6%.
For SQEEHQAFLQFS, the “Binding Results For Window Length (counts bound-background), 9” value [1] was 647 counts and the “Binding Results For Window Length (counts bound-background), 12” value [1] was 7512 counts.
“EAISTVVLATQMTLGFFL [STRL33 segment 185-202]” was tested, and the “radioactive counts recorded” value [2] was 3973.5 counts and the “radioactive counts recorded” value [3] was 3745.5 counts.
In the case of NSDTHLLQGQSL, the “COUNTS of radiolabeled gp120 retained” value [9] is reported as 585 counts.
LKIEDSDTYICEVED was tested, and the “COUNTS of radiolabeled gp120 retained” value [10] was 846 counts.
In the case of IPDFIFANVSEADDRYIC, the “radioactive counts recorded” value [6] is reported as 438 counts and the “radioactive counts recorded” value [7] is reported as 850 counts.
With TLGFFLPLLTMIVCYSVI the “radioactive counts recorded” value [2] was 2387.5 counts and the “radioactive counts recorded” value [3] was 479.5 counts.
With SIVYKKEGEQVEFSFPLA the “COUNTS of radiolabeled gp120 retained” value [4] was 771 counts.
For EQVEFSFPLAFTVEK, the “COUNTS of radiolabeled gp120 retained” value [4] was 4135 counts.
VIIKTLLHAGGFQKERSL was tested, and the “radioactive counts recorded” value [2] was 961.5 counts and the “radioactive counts recorded” value [3] was 682.5 counts.
For WTCTVLQNQKKVEFK, the “COUNTS of radiolabeled gp120 retained” value [4] was 566 counts.
For “IFLVMAVFLLTQMPFNLM [STRL33 segment 233-250]”, the “radioactive counts recorded” value [2] was 386.5 counts and the “radioactive counts recorded” value [3] was 772.5 counts.
In the case of FPLAFTVEKLTG, the “COUNTS of radiolabeled gp120 retained” value [5] is reported as 622 counts.
For LPLLVMVICYSGILKTLL [CCR5 segment 205-], the “Counts per 20′ Average-background” value [8] was 68 counts per 20′.
In the case of EVEDQKEEVQLLVFG, the “COUNTS of radiolabeled gp120 retained” value [10] is reported as 2805 counts.
With MEGISIYTSDNATEEMGS the “Relative % of Control” value (CXCR4 (1-18) alanine variants) was 28 ± 2%.
With LTVPFWAHYAAAQWDFGN [CCR5 segment 81-98] the “Counts per 20′ Average-background” value [8] was 306 counts per 20′.
For SFPLAFTVEKLT, the “COUNTS of radiolabeled gp120 retained” value [5] was 528 counts.
For “MAVFLLTQMPFNLMKFIR [STRL33 segment 237-254]”, the “radioactive counts recorded” value [2] was 2263.5 counts and the “radioactive counts recorded” value [3] was 2842.5 counts.
In the case of THLLQGQSLTLTLAS, the “COUNTS of radiolabeled gp120 retained” value [11] is reported as 2596 counts and 2193 counts.
With IVYKKEGEQVEFSFP the “COUNTS of radiolabeled gp120 retained” value [4] was 615 counts.
